Values belong to the molecule of their own block, whether it stands above or below them.
Columns and labels:
GABAA receptor = settings: cited from earlier work; for influence on GABAA receptor: compared with phellopterin
GABA/BDZ receptor = system: GABA/BDZ receptor; set-up: method as in PMID 8971802; settings: cited from earlier work
animal model = settings: cited from earlier work; for anxiolytic activity (percentage of time and number of arms entries in the open arm): elevated plus maze
5-dpf zebrafish larvae [1] = test: Zebrafish larvae light/dark transition challenge: locomotor activity and thigmotaxis (anxiolytic activity assay, Phase 2); assay type: in vivo, Danio rerio
Description: (§1) The research protocol was adopted after Schnorr et al. (2012). The anxiolytic activity was evaluated in 24-well plates. The inner and outer zones of the well were delineated according to Schnorr et al. (2012). […] It could be also described as decreasing thigmotaxis. 1% DMSO in E3 solution was used as the negative control, 10 μM diazepam was used as the positive control. 32 larvae were used for each concentration.
(§2) The experimental procedure was divided into three stages: • (a) Preincubation: larvae were pre-incubated in a 1500 μL solution of tested compounds in individual wells of a 24-well plate at 28.5 °C, in dark, for 30 min. • (b) Acclimatization (min 0–10): plates were placed in an automated video recording bench station (ViewPoint, Lyon, France). Larvae were allowed to acclimatize to the test apparatus for 10 min. During this period, lights were kept on. • (c) Visual motor challenge (min 11–95): this stage experiment was divided into two phases: Phase 1—continuous illumination: larvae were subjected to continuous light for 40 min, with the purpose to determine the spontaneous locomotor activity and thigmotaxis behavior (before applying the factor causing the anxiety). Phase 2—light/dark transition: larvae were subjected to three cycles, each involving the 10-min lighting phase (continuous light) and the 5-min dark phase (anxiogenic factor).

5-dpf zebrafish larvae [2] = test: Zebrafish larvae 40 min continuous illumination: spontaneous locomotor activity and thigmotaxis (Phase 1); assay type: in vivo, Danio rerio; settings: 40 min continuous illumination; all concentrations (9, 15, 30 µM)
Description: as §1, §2

[3] = Shake-flask partition coefficient in HEMWat biphasic solvent systems; assay type: physicochemical; settings: solvent system III, hexane/ethyl acetate/methanol/water 5/2/5/2 (v/v/v/v)
Description: The screening for suitable biphasic solvent systems to isolate the target coumarins from Seseli devenyense methanolic fruit extract (SDMFE) was performed by shake-flask experiments. The partition coefficient (Pi), defined as the ratio of the concentration of a solute in the stationary phase to its concentration in the mobile phase, was used as the screening parameter. The experimental protocol was previously descried by Widelski et al. (2018). Briefly, 1 mg of crude extract was dissolved in 4 mL of biphasic solvent systems obtained by mixing various volumes of hexane, ethyl acetate, methanol and water (HEMWat). After vigorous shaking, the flasks were left until the complete separation of the layers. Then, equal volumes of the upper and lower phase (0.5 mL) were taken, evaporated to dryness, dissolved again in methanol (1.0 mL) and analyzed by HPLC-DAD analysis, as descried below.
The preliminary analysis of the SDMFE, determination of the partition coefficient values and purity of collected fractions were assessed by HPLC-DAD. The HPLC-DAD analyses were performed on a Shimadzu HPLC (Shimadzu, Tokyo, Japan) equipped with automatic degasser (DGU-20A3R), quaternary pump (LC-20AD), auto-sampler (SIL-20AHT) and diode array detector (SPD-M20A). The separations were carried out on an Agilent Zorbax Eclipse XDB-C18 (Agilent, Santa Clara, CA, USA) (250 mm × 4.6 mm, 5 μm) column with a mobile phase consisting of water (solvent A) and methanol (solvent B). The following gradient was applied: 0 min: 50% B; 5 min: 60% B; 25 min: 80% B; 30–35 min: 100% B. The flow-rate was 1 mL/min; the column temperature was set at 25 °C. The injection volume of sample was 10 μL and detection was carried out at 320 nm.

mice = settings: 5 mg/kg; cited from earlier work
[4] = set-up: method as in PMID 23803166; settings: cited from earlier work
zebrafish = system: zebrafish; set-up: method as in PMID 33049351; settings: zebrafish model; cited from earlier work
murine model = system: murine model; set-up: method as in PMID 33049351; settings: cited from earlier work
[5] = dark phase vs DMSO-treated group in dark phase, 9 μM
[6] = dark phase vs light phase within same group, 9 μM
[7] = dark phase vs light phase within same group, 15 μM
[8] = dark phase vs light phase within same group, 30 μM
[9] = dark phase vs light phase, concentration not stated

Compound: COc1c2ccoc2cc2oc(=O)ccc12 [bergapten]
influence on GABAA receptor (GABAA receptor): weaker influence

Compound: COc1c2ccoc2c(OC[C@H]2OC2(C)C)c2oc(=O)ccc12 [byakangelicol]
mode of action at GABA/BDZ receptor (GABA/BDZ receptor): partial agonists

Compound: COc1cc2cc(Oc3ccc4ccc(=O)oc4c3)c(=O)oc2cc1O [daphnoretin]
anxiolytic activity (animal model; rodent model of anxiety, tested on EPM): significant anxiolytic activity

Compound: CC(C)=CCOc1c2occc2cc2ccc(=O)oc12 [imperatorin]
influence on GABAA receptor (GABAA receptor): weaker influence
anxiolytic activity (percentage of time and number of arms entries in the open arm) (animal model): significant anxiolytic activity

Compound: CC(C)=CCOc1c2ccoc2cc2oc(=O)ccc12 [isoimperatorin]
anxiolytic activity (percentage of time and number of arms entries in the open arm) (animal model): significant anxiolytic activity

Partition Coefficients (Pi) [3]: 2.01
Compound: CCCCCCCC(=O)O[C@H]1Cc2c(ccc3ccc(=O)oc23)OC1(C)C [octanoyllomatin]
percentage of distance moved in central area (5-dpf zebrafish larvae [1]; [5]): significant increases
percentage of time spent in central area (5-dpf zebrafish larvae [1]; [5]): significant increases
percentage of time spent in central area (5-dpf zebrafish larvae [1]; dark phase vs DMSO-treated group in dark phase, 15 μM): significant increases
locomotor activity (average distance moved per 1-min time bin) (5-dpf zebrafish larvae [1]; dark phase vs DMSO-treated group in dark phase, 30 μM): significant decreases
locomotor activity (average distance moved per 1-min time bin) (5-dpf zebrafish larvae [1]; [6]): increase
percentage of distance moved in central area (5-dpf zebrafish larvae [1]; [6]): increase
percentage of time spent in central area (5-dpf zebrafish larvae [1]; [6]): increase
locomotor activity (average distance moved per 1-min time bin) (5-dpf zebrafish larvae [1]; [7]): increase
percentage of distance moved in central area (5-dpf zebrafish larvae [1]; [7]): increase
percentage of time spent in central area (5-dpf zebrafish larvae [1]; [7]): increase
percentage of distance moved in central area (5-dpf zebrafish larvae [1]; [8]): increase
percentage of time spent in central area (5-dpf zebrafish larvae [1]; [8]): increase
distance moved by the larvae in the central arena (5-dpf zebrafish larvae [1]; [9]): significantly increased
time spent in the central area (5-dpf zebrafish larvae [1]; [9]): significantly increased
percentage of time spent in central area (5-dpf zebrafish larvae [1]; light phase vs DMSO-treated group in light phase, 30 μM): decrease
anxiolytic activity (authors' overall statement) (5-dpf zebrafish larvae [1]; zebrafish larvae model): highest anxiolytic activity
spontaneous locomotor activity (average distance moved) (5-dpf zebrafish larvae [2]): has not influenced

Compound: CC(C)=CCCC(C)=CCc1cc2ccc(=O)oc2cc1O [ostruthin, 6-(3,7-dimethyl-2,6-octadienyl)-7-hydroxycoumarin]
anxiolytic effect (mice): anxiolytic effect

Compound: COc1c2ccoc2c(OCC=C(C)C)c2oc(=O)ccc12 [phellopterin]
IC50 (GABAA receptor): 360 nM
mode of action at GABA/BDZ receptor (GABA/BDZ receptor): partial agonists

Compound: O=c1ccc2cc3ccoc3cc2o1 [psolaren]
mode of action at GABA/BDZ receptor (GABA/BDZ receptor): partial agonists

Compound: COc1cc2ccc(=O)oc2cc1O [scopoletin, 7-hydroxy-6-methoxycoumarin]
anxiolytic effects [4]: significant sustained anxiolytic effects

Compound: O=c1ccc2ccc(O)cc2o1 [umbelliferone, 7-hydroxycoumarin]
anxiolytic effects [4]: significant sustained anxiolytic effects

Compound: COc1c2occc2cc2ccc(=O)oc12 [xanthotoxin]
effect on anxiety behaviors (thigmotaxis) (zebrafish): reversed U-shape effect
effect on anxiety behaviors (thigmotaxis) (murine model): reversed U-shape effect
